Measured values published in patent US7253187B2, “Heterocyclic inhibitors of ERK2 and uses thereof” (Vertex Pharmaceuticals Incorporated, priority 2001, dated 2007).

Key:
Format in all cases: biochemical
[1] = target: T1, Aurora-2 (Homo sapiens, UniProt O14965); assay: Aurora-2 inhibition assay (coupled enzyme assay)
T1 sequence (O14965 1-403): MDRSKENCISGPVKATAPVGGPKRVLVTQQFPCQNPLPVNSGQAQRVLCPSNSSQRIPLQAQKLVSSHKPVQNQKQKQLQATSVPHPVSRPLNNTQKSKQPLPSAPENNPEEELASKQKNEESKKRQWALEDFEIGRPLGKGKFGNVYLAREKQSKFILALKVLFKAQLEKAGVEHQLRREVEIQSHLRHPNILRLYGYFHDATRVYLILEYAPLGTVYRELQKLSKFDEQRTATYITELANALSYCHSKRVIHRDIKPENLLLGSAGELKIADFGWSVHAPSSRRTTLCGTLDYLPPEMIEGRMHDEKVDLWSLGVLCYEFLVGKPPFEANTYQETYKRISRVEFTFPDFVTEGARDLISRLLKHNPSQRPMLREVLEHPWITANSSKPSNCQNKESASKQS
Procedure: Compounds were screened in the following manner for their ability to inhibit Aurora-2 using a standard coupled enzyme assay (Fox et al (1998) Protein Sci 7, 2249).
To an assay stock buffer solution containing 0.1M HEPES 7.5, 10 mM MgCl2, 1 mM DTT, 25 mM NaCl, 2.5 mM phosphoenolpyruvate, […], 30 mg/ml pyruvate kinase, 10 mg/ml lactate dehydrogenase, […], and 800 μM peptide (LRRASLG, American Peptide, Sunnyvale, Calif.) was added a DMSO solution of a compound of the present invention to a final concentration of 30 μM. The resulting mixture was incubated at 30° C. for 10 min. The reaction was initiated by the addition of 10 μL of Aurora-2 stock solution to give a final concentration of 70 nM in the assay. The rates of reaction were obtained by monitoring absorbance at 340 nm over a 5 minute read time at 30° C. using a BioRad Ultramark plate reader (Hercules, Calif.). The Ki values were determined from the rate data as a function of inhibitor concentration.

[2] = target: ERK2 (Homo sapiens, UniProt P28482); assay: ERK2 inhibition assay (spectrophotometric coupled-enzyme assay); settings: read-out: ERK2 Inhibitory Activity (Ki class D-F)
Procedure: The IC50 was evaluated from the rate data as a function of inhibitor concentration. […] The compound numbers correspond to the compound numbers in Table 1.

[3] = target: T2, GSK-3β (AA 1–420) (Homo sapiens, UniProt P49841); assay: GSK-3 inhibition assay (coupled enzyme system); settings: read-out: GSK3 Inhibitory Activity (Ki class)
T2 construct: GSK-3β (AA 1–420)
Method in brief: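 ADP production read via pyruvate kinase/lactate dehydrogenase–coupled NADH consumption over 10 min at 30 °C. Ki derived from rates versus inhibitor concentration.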

[4] = target: CDK-2/Cyclin A (Homo sapiens, UniProt P24941); assay: CDK-2 inhibition assay (coupled enzyme assay)
Procedure: To an assay stock buffer solution containing 0.1M HEPES 7.5, 10 mM MgCl2, 1 mM DTT, 25 mM NaCl, 2.5 mM phosphoenolpyruvate, […], […], […], […], and 100 μM peptide ([…], American Peptide, Sunnyvale, Calif.) was added a DMSO solution of a compound of the present invention to a final concentration of 30 μM.
The Ki values were determined from the rate data as a function of inhibitor concentration.

[5] = target: ERK1 (Homo sapiens, UniProt P27361); assay: ERK1 inhibition assay (spectrophotometric coupled-enzyme assay); settings: read-out: inhibit ERK1 with an activity (Ki)
Procedure: Compounds were assayed for the inhibition of ERK1 by a spectrophotometric coupled-enzyme assay (Fox et al (1998) Protein Sci 7, 2249). In this assay, a fixed concentration of activated ERK1 (20 nM) was incubated with various concentrations of the compound in DMSO (2.0%) for 10 min. at 30° C. in 0.1 M HEPES buffer, pH 7.6, containing 10 mM MgCl2, 2.5 mM-phosphoenolpyruvate, 200 μM NADH, 30 μg/mL pyruvate kinase, 10 μg/mL lactate dehydrogenase, and 150 μM erktide peptide. The reaction was initiated by the addition of 140 μM ATP (20 μL). The rate of decrease of absorbance at 340 nm was monitored. The Ki was evaluated from the rate data as a function of inhibitor concentration.

Chain of ERK2 (P28482 whole entry): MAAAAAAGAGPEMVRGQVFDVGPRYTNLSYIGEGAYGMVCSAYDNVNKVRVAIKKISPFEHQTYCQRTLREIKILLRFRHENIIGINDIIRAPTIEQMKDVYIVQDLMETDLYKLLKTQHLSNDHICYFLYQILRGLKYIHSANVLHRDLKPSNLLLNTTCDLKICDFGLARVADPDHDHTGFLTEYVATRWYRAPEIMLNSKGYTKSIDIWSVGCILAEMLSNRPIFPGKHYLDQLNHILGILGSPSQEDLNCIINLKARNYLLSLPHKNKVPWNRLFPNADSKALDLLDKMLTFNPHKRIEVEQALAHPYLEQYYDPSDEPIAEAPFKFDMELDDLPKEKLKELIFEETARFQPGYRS
T2 sequence (P49841 whole entry, species assumed, the tested form may be a part): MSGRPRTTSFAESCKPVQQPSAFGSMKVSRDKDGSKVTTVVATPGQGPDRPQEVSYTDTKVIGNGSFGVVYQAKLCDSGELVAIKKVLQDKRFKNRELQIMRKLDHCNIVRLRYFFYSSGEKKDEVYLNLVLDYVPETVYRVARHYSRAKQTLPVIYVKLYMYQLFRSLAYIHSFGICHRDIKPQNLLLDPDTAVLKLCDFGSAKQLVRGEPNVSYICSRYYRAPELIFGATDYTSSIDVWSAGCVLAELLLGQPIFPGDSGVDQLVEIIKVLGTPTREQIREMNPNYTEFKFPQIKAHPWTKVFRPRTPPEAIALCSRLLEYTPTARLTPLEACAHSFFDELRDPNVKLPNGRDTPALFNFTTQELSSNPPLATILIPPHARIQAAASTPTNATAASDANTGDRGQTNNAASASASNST
Chain of ERK1 (P27361 whole entry, species assumed): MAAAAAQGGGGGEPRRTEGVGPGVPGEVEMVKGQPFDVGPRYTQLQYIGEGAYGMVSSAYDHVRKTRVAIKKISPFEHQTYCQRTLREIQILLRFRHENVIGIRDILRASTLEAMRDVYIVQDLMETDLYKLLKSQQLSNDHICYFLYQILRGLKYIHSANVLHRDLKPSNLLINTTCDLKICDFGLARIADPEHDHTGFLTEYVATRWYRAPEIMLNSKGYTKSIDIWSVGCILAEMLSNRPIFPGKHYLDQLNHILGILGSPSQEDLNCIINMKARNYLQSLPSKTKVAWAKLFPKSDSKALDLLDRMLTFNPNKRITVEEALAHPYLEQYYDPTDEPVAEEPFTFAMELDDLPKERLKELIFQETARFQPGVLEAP

| Structure (SMILES) | found to inhibit Aurora-2 [1] | Ki [2] [µM] | Ki [3] [µM] | Ki [4] [µM] | Ki [5] [µM] |
| --- | --- | --- | --- | --- | --- |
| Cc1cnc(Nc2ccccc2)nc1-c1c[nH]c(C(=O)NC(CO)c2ccccc2)c1 (stereo not shown) [III-a-116, 4-(5-Methyl-2-phenylamino-pyrimidin-4-yl)-1H-pyrrole-2-carboxylic acid (2-hydroxy-1-phenyl-ethyl)-amide] | found to inhibit Aurora-2 | – | – | – | – |
| CCNc1ncc(C)c(-c2c[nH]c(C(=O)N[C@H](CO)c3ccccc3)c2)n1 [III-a-117, 4-(2-Ethylamino-5-methyl-pyrimidin-4-yl)-1H-pyrrole-2-carboxylic acid (2-hydroxy-1-phenyl-ethyl)-amide] | found to inhibit Aurora-2 | < 0.1 | < 0.1 | 1 to 20 | – |
| Cc1cnc(Nc2cccc(O)c2)nc1-c1c[nH]c(C(=O)NC(CO)c2ccccc2)c1 (stereo not shown) [III-a-138, 4-[2-(3-Hydroxy-phenylamino)-5-methyl-pyrimidin-4-yl]-1H-pyrrole-2-carboxylic acid (2-hydroxy-1-phenyl-ethyl)-amide] | found to inhibit Aurora-2 | – | < 0.1 | – | – |
| Cc1cnc(Nc2ccc(S(N)(=O)=O)cc2)nc1-c1c[nH]c(C(=O)NC(CO)c2ccccc2)c1 (stereo not shown) [III-a-140, 4-[5-Methyl-2-(4-sulfamoyl-phenylamino)-pyrimidin-4-yl]-1H-pyrrole-2-carboxylic acid (2-hydroxy-1-phenyl-ethyl)-amide] | found to inhibit Aurora-2 | < 0.1 | < 0.1 | – | – |
| Cc1cnc(Nc2cccc(OCc3ccccc3)c2)nc1-c1c[nH]c(C(=O)NC(CO)c2ccccc2)c1 (stereo not shown) [III-a-141, 4-[2-(3-Benzyloxy-phenylamino)-5-methyl-pyrimidin-4-yl]-1H-pyrrole-2-carboxylic acid (2-hydroxy-1-phenyl-ethyl)-amide] | found to inhibit Aurora-2 | < 0.1 | < 0.1 | – | – |
| Cc1cnc(NC2CCC(O)CC2)nc1-c1c[nH]c(C(=O)NC(CO)c2ccccc2)c1 (stereo not shown) [III-a-142, 4-[2-(4-Hydroxy-cyclohexylamino)-5-methyl-pyrimidin-4-yl]-1H-pyrrole-2-carboxylic acid (2-hydroxy-1-phenyl-ethyl)-amide] | – | < 0.1 | < 0.1 | < 0.1 | – |
| Cc1cnc(Nc2ccccc2)nc1-c1c[nH]c(C(=O)NC(CO)c2cccc(C(F)(F)F)c2)c1 (stereo not shown) [III-a-146, 4-(5-Methyl-2-phenylamino-pyrimidin-4-yl)-1H-pyrrole-2-carboxylic acid [2-hydroxy-1-(3-trifluoromethyl-phenyl)-ethyl]-amide] | – | – | 0.1 to 1 | 0.1 to 1 | – |
| Cc1cnc(Nc2cccc(F)c2)nc1-c1c[nH]c(C(=O)NC(CO)c2cccc(C(F)(F)F)c2)c1 (stereo not shown) [III-a-148, 4-[2-(3-Fluoro-phenylamino)-5-methyl-pyrimidin-4-yl]-1H-pyrrole-2-carboxylic acid [2-hydroxy-1-(3-trifluoromethyl-phenyl)-ethyl]-amide] | – | < 0.1 | < 0.1 | 0.1 to 1 | – |
| Cc1cnc(Nc2cccc(C(F)(F)F)c2)nc1-c1c[nH]c(C(=O)NC(CO)c2ccccc2)c1 (stereo not shown) [III-a-149, 4-[5-Methyl-2-(3-trifluoromethyl-phenylamino)-pyrimidin-4-yl]-1H-pyrrole-2-carboxylic acid (2-hydroxy-1-phenyl-ethyl)-amide] | – | < 0.1 | < 0.1 | < 0.1 | – |
| Cc1cnc(NCc2ccccc2)nc1-c1c[nH]c(C(=O)NC(CO)c2ccccc2)c1 (stereo not shown) [III-a-150, 4-(2-Benzylamino-5-methyl-pyrimidin-4-yl)-1H-pyrrole-2-carboxylic acid (2-hydroxy-1-phenyl-ethyl)-amide] | – | < 0.1 | 0.1 to 1 | 0.1 to 1 | – |
| Cc1cnc(Nc2ccc(OCc3ccccc3)cc2)nc1-c1c[nH]c(C(=O)NC(CO)c2ccccc2)c1 (stereo not shown) [III-a-152, 4-[2-(4-Benzyloxy-phenylamino)-5-methyl-pyrimidin-4-yl]-1H-pyrrole-2-carboxylic acid (2-hydroxy-1-phenyl-ethyl)-amide] | – | < 0.1 | < 0.1 | < 0.1 | – |
| Cc1cnc(N[C@H](CO)c2ccccc2)nc1-c1c[nH]c(C(=O)N[C@H](CO)c2ccccc2)c1 [III-a-155, 4-[2-(2-Hydroxy-1-(S)-phenyl-ethylamino)-5-methyl-pyrimidin-4-yl]-1H-pyrrole-2-carboxylic acid (2-hydroxy-1-(S)-phenyl-ethyl)-amide] | – | < 0.1 | 0.1 to 1 | 0.1 to 1 | – |
| COc1ccccc1Nc1ncc(C)c(-c2c[nH]c(C(=O)NC(CO)c3ccccc3)c2)n1 (stereo not shown) [III-a-156, 4-[2-(2-Methoxy-phenylamino)-5-methyl-pyrimidin-4-yl]-1H-pyrrole-2-carboxylic acid (2-hydroxy-1-phenyl-ethyl)-amide] | – | – | 0.1 to 1 | 1 to 20 | – |
| Cc1cnc(NCC2CC2)nc1-c1c[nH]c(C(=O)NC(CO)c2ccccc2)c1 (stereo not shown) [III-a-159, 4-[2-(Cyclopropylmethyl-amino)-5-methyl-pyrimidin-4-yl]-1H-pyrrole-2-carboxylic acid (2-hydroxy-1-phenyl-ethyl)-amide] | – | < 0.1 | < 0.1 | 1 to 20 | – |
| Cc1cnc(NC2CC2)nc1-c1c[nH]c(C(=O)N[C@H](CO)c2ccccc2)c1 [III-a-162, 4-(2-Cyclopropylamino-5-methyl-pyrimidin-4-yl)-1H-pyrrole-2-carboxylic acid (2-hydroxy-1-(S)-phenyl-ethyl)-amide] | – | < 0.1 | < 0.1 | 0.1 to 1 | – |
| Cc1cnc(NC2(CO)CC2)nc1-c1c[nH]c(C(=O)NC(CO)c2ccccc2)c1 (stereo not shown) [III-a-174, 4-[2-(1-Hydroxymethyl-cyclopropylamino)-5-methyl-pyrimidin-4-yl]-1H-pyrrole-2-carboxylic acid (2-hydroxy-1-phenyl-ethyl)-amide] | – | < 0.1 | < 0.1 | 0.1 to 1 | – |
| Cc1cnc(NC2CC2)nc1-c1c[nH]c(C(=O)NC(CO)c2cccc(C(F)(F)F)c2)c1 (stereo not shown) [III-a-202, 4-(2-Cyclopropylamino-5-methyl-pyrimidin-4-yl)-1H-pyrrole-2-carboxylic acid [2-hydroxy-1-(3-trifluoromethyl-phenyl)-ethyl]-amide] | – | < 0.1 | > 1 | – | < 0.1 |
| Cc1cnc(NC2CC2)nc1-c1c[nH]c(C(=O)NC(CO)c2cccc(Cl)c2)c1 (stereo not shown) [III-a-204, 4-(2-Cyclopropylamino-5-methyl-pyrimidin-4-yl)-1H-pyrrole-2-carboxylic acid [1-(3-chloro-phenyl)-2-hydroxy-ethyl]-amide] | – | < 0.1 | – | – | < 0.1 |
| Cc1cccc(C(CO)NC(=O)c2cc(-c3nc(NC4CC4)ncc3C)c[nH]2)c1 (stereo not shown) [III-a-205, 4–1(2-Cyclopropylamino-5-methyl-pyrimidin-4-yl)-1H-pyrrole-2-carboxylic acid (2-hydroxy-1-m-tolyl-ethyl)-amide] | – | < 0.1 | 0.1 to 1 | – | < 0.1 |
